From patent US20070197452A1, “Treatment of amyloid-related diseases” (priority 2006, published 2007)

What was measured:
[1] = test system: mouse model of Huntington disease; conditions: oral administration; reference [26]; cited from earlier work
Pilot in vivo studies = conditions: data not shown
[2] = 6-18 grams/day/adult or 86-257 mg/Kg/day; cited from earlier work
Aβ = Aβ (Homo sapiens, UniProt P05067); conditions: reference [11]; cited from earlier work
TgCRND8 mice [3] = assay: Cerebral amyloid plaque burden (anti-Aβ immunostaining, image analysis); assay type: in vivo, mouse; conditions: TgCRND8 mice at six months of age; vs untreated
Procedure: Cerebral amyloid burden. […] To generate sets of systematic uniform random sections, 5 μm serial sections were collected across the entire hemisphere. Sets of sections at 50 μm intervals were used for analyses (10-14 sections/set). Plaques were identified after antigen retrieval with formic acid, and incubation with primary anti-Aβ antibody (Dako M-0872), followed by secondary antibody (Dako StreptABCcomplex/horseradish kit). End products were visualized with DAB and were counter-stained with luxol fast blue. Amyloid plaque burden was assessed with Leco IA-3001 image analysis software interfaced with Leica microscope and Hitachi KP-M1U CCD video camera. Openlab imaging software (Improvision, Lexington, Mass.) was then used to convert micrographs to binary images for plaque number and plaque area determinations. Vascular amyloid burden was defined as amyloid originating from or surrounding blood vessels and was analysed similarly. Cerebral Aβ burden. […] Sets of sections at […] intervals for analyses (10-14 sections per set) were used. Plaques with primary Aβ-specific antibody (Dako M-0872) were identified and visualized with DAB. AP plaque burden was assessed with Openlab imaging software (Improvision) and used to convert micrographs to binary images for determinations of plaque number and plaque area. Vascular Aβ burden was defined as Aβ plaques originating from or surrounding blood vessels and was analyzed similarly. Cerebral Aβ burden. […] To generate sets of systematic uniform random sections, 5 μm serial sections were collected across the entire hemisphere. Sets of sections at 50 μm intervals were used for analyses (10-14 sections/set). Plaques were identified after antigen retrieval with formic acid, and incubation with primary anti-Aβ antibody (Dako M-0872), followed by secondary antibody (Dako StreptABCcomplex/horseradish kit). End products were visualized with DAB and were counter-stained with luxol fast blue. Aβ plaque burden was assessed with Leco IA-3001 image analysis software interfaced with Leica microscope and Hitachi KP-M1U CCD video camera. Openlab imaging software (Improvision, Lexington, Mass.) was then used to convert micrographs to binary images for plaque number and plaque area determinations. Vascular Aβ burden was defined as Aβ plaques originating from or surrounding blood vessels and was analyzed similarly.

TgCRND8 mice [4] = assay: Morris water maze spatial reference memory test; assay type: in vivo, mouse; conditions: prophylactic, 6 weeks to 6 months of age
Procedure: Behavioural tests: Morris Water Maze testing was performed as previously described. After non-spatial pre-training, mice underwent place discrimination training for 5 days with 4-trials per day, followed by a cued visible platform to rule out general motivational, learning deficits and motor problems, and a probe trial to evaluate memory. […] Open field test for motor activity was preformed as described previously. Duration of walking, pausing and grooming were analyzed as indices of spontaneous locomotor activity. Sensorimotor function was examined with an EconomexTM accelerating rotarod (Columbus Instruments, Columbus, Ohio), as described elsewhere. The rod was set to accelerate at a rate of 0.2 r.p.m./s, from an initial, constant speed of 5 r.p.m. Latency to fall was recorded in four daily trials, conducted at 30 min intervals. All mice were trained for seven days before testing. The test day performance score for each animal was obtained by summing its latency to fall over the four trials Behavioral tests. Morris water maze testing was carried out as previously described. After nonspatial pretraining, mice underwent place discrimination training for 5 d with four trials per day, followed by a cued visible platform trial and a probe trial. An open-field test for motor activity was carried out as described previously. Sensorimotor function was assessed with an Economex accelerating rotarod (Columbus Instruments) as previously described. Behavioural tests. Morris Water Maze testing was performed as previously described. After non-spatial pre-training, mice underwent place discrimination training for 5 days with 4-trials per day, followed by a cued visible platform to rule out general motivational, learning deficits and motor problems, and a probe trial to evaluate memory. The probe trial was conducted at 72 h after the last testing, and used an annulus-crossing index to assess spatial recall. The annulus-crossing index measures the number of passes over the original platform position relative to passes over the other three quadrants. […] Open field test for motor activity was performed as described previously

TgCRND8 mice [5] = assay: Survival census (Kaplan-Meier); assay type: in vivo, mouse; conditions: prophylactic treatment, vs untreated, n=35 per group
Procedure: Survival Census: The probability of survival was assessed by the Kaplan-Meier technique, computing the probability of survival at every occurrence of death, thus making it suitable for small sample sizes. For the analyses of survival, 35 mice were used for each treatment group. The Tarone-Ware test was used to assess effects of treatments.
Survival census. The probability of survival was assessed using the Kaplan-Meier technique, computing the probability of survival at every occurrence of death, thus making it suitable for small sample sizes. For the analyses of survival, 35 mice were used for each treatment group. The Tarone-Ware test was used to assess effects of treatments.

Sequence of Aβ (P05067 672-713 limits assumed): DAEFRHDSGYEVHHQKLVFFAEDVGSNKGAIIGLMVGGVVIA

OC[C@H]1O[C@H](O[C@H]2O[C@H](CO)[C@@H](O)[C@H](O)[C@H]2O)[C@H](O)[C@@H](O)[C@@H]1O [trehalose]
effects in mouse model of Huntington disease [1]: decreased polyglutamine aggregates in brain, improved motor dysfunction and extended lifespan

O[C@H]1[C@H](O)[C@@H](O)[C@H](O)[C@@H](O)[C@H]1O [myo-cyclohexanehexol, 1,2,3,5/4,6-(myo-) cyclohexanehexol]
benefit in pilot in vivo studies (Pilot in vivo studies): no significant benefit | toxicity [2]: no toxicity | effectiveness in prior in vitro studies (Aβ): only weakly effective

OC[C@@H](O)[C@@H](O)[C@H](O)[C@H](O)CO [mannitol, reference compound]
plaque count as measure of total plaque burden (TgCRND8 mice [3]): indistinguishable from untreated TgCRND8 mice | cognitive performance compared with non-Tg littermates (TgCRND8 mice [4]): significantly different from mannitol treated non-Tg littermates | cognitive performance compared with untreated TgCRND8 mice (TgCRND8 mice [4]): no effect on behavior | cognitive performance compared with untreated TgCRND8 mice (TgCRND8 mice [4]; listed as Mannitol): not significantly different from untreated TgCRND8 mice | survival (Kaplan-Meier cumulative survival) (TgCRND8 mice [5]): not significantly different
